Laboratory results reported in publication doi:10.1101/2023.10.03.560722, “Drug Discovery in Low Data Regimes: Leveraging a Computational Pipeline for the Discovery of Novel SARS-CoV-2 Nsp14-MTase Inhibitors” (bioRxiv, 2024).
Like-named read-outs stand apart in the source and are kept apart here.

Assays:
Type in all cases: biochemical
[1] = biological target: human RNMT (N7 guanosine RNA methyltransferase) (Homo sapiens, UniProt O43148); assay: RNMT activity inhibition (selectivity)
[2] = biological target: PRMT1 (Homo sapiens, UniProt Q99873); assay: human MTase selectivity panel
Chain of PRMT1 (Q99873 whole entry): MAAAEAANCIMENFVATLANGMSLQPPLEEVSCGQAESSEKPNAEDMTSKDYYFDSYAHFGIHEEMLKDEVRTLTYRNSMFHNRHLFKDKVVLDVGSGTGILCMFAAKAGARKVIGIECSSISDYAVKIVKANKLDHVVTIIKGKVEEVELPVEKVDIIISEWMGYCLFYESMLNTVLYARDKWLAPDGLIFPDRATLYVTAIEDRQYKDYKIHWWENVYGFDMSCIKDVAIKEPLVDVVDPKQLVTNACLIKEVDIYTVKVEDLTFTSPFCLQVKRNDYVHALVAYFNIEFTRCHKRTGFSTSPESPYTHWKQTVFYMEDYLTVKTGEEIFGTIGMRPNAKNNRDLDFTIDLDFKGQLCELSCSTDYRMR

[3] = biological target: T1, PRMT7 (protein arginine methyltransferase 7) (Homo sapiens, UniProt Q9NVM4); assay: human MTase selectivity panel and IC50
T1 sequence (Q9NVM4 1-692): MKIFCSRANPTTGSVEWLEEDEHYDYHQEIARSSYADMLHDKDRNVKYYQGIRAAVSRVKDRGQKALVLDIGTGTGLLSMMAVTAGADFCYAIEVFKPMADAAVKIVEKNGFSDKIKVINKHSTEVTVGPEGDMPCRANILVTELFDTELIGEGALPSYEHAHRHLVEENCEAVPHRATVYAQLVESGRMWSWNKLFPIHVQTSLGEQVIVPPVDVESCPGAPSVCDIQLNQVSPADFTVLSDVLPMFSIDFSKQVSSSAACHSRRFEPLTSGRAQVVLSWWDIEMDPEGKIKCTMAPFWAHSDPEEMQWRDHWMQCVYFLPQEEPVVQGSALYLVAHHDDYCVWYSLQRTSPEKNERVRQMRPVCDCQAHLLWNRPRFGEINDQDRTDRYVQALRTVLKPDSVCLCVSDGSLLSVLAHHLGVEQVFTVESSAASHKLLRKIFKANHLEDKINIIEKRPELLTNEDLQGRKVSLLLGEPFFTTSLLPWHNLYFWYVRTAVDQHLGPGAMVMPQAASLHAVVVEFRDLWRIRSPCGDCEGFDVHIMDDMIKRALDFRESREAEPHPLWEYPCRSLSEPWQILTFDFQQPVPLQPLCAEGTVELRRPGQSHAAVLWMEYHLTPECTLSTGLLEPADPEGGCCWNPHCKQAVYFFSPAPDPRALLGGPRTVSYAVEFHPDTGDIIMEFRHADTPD

[4] = biological target: T2, SETD7 (Homo sapiens, UniProt Q8WTS6); assay: human MTase selectivity panel
T2 sequence (Q8WTS6 1-366): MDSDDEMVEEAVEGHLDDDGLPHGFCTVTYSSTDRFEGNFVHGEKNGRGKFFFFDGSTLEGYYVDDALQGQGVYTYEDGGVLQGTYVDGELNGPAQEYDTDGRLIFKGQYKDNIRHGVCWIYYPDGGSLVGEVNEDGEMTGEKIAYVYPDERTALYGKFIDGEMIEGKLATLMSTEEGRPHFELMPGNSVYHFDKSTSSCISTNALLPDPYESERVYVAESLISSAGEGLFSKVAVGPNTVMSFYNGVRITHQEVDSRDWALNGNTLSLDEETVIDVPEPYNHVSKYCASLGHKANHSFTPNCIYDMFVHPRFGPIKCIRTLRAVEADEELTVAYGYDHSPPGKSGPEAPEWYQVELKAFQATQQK

[5] = biological target: T3, SMYD3 (Homo sapiens, UniProt Q9H7B4); assay: human MTase selectivity panel
T3 sequence (Q9H7B4 1-428): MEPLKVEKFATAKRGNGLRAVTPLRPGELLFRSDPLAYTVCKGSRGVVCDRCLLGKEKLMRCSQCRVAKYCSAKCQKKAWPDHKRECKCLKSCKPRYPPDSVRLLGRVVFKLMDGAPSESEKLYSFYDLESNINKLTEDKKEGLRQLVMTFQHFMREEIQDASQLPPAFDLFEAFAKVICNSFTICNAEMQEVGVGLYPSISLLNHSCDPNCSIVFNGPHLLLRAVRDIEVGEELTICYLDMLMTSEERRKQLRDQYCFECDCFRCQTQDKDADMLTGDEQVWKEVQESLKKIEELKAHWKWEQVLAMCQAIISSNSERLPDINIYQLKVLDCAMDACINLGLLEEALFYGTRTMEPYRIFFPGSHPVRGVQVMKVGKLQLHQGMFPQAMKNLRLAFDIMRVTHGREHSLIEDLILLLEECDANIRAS

[6] = biological target: EZH2 (Homo sapiens, UniProt Q15910); assay: human MTase selectivity panel
Chain of EZH2 (Q15910 whole entry): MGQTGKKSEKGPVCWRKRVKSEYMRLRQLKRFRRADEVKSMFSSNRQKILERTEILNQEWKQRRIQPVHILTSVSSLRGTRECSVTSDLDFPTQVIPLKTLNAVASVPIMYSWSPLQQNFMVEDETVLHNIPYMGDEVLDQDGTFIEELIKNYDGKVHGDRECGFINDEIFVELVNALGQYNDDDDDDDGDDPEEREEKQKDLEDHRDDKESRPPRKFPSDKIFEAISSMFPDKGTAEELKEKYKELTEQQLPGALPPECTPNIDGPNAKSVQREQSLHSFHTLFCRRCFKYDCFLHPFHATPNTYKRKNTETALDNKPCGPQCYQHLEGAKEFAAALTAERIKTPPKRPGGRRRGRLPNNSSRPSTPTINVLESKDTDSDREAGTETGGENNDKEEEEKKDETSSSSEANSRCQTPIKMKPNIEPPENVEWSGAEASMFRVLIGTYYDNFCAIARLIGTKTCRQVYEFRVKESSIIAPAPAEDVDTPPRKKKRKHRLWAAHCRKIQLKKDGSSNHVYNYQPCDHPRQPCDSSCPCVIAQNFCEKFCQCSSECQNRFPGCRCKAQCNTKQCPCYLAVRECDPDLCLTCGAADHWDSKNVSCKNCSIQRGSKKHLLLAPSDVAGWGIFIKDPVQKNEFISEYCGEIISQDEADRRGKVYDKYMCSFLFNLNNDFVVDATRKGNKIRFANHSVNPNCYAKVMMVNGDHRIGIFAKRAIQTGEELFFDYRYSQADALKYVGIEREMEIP
Chain of EZH2 (O75530 whole entry partner): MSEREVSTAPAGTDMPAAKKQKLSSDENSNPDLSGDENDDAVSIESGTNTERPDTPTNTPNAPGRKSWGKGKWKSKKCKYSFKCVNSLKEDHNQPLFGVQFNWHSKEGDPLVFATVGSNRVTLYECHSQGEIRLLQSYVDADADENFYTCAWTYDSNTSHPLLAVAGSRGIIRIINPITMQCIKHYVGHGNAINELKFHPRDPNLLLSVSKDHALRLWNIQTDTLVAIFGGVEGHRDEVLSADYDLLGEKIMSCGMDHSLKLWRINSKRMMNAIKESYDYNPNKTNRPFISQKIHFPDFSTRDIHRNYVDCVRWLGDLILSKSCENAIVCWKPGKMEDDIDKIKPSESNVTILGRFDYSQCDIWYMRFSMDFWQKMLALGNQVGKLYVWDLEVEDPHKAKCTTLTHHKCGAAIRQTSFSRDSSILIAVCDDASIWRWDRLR
Chain of EZH2 (Q15022 whole entry partner): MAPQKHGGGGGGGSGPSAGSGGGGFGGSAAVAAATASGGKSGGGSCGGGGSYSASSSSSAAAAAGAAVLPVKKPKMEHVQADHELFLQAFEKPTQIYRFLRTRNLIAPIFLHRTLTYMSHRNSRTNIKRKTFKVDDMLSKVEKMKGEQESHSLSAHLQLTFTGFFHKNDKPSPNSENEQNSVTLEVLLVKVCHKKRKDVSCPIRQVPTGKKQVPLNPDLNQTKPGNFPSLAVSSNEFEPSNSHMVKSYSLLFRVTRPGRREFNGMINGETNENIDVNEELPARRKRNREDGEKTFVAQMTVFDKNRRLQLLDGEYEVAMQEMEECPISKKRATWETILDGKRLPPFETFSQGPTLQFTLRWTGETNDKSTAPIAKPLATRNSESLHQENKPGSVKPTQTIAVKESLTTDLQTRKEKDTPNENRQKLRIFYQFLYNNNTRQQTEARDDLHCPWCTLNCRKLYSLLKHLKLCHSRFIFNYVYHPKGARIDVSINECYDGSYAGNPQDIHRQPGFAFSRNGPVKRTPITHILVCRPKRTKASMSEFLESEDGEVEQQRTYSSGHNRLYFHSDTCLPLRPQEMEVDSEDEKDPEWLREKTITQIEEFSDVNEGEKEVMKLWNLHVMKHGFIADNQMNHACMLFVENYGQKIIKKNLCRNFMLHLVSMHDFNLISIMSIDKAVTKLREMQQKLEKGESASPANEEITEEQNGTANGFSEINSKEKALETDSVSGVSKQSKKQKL

[7] = average ± SD, read-out: Activity (%) at 10 µM Average
[8] = read-out: Activity (%) at 10 µM Replicate 1
[9] = read-out: Activity (%) at 10 µM Replicate 2
[10] = read-out: Activity (%) at 10 µM Replicate 3

Chain of human RNMT (N7 guanosine RNA methyltransferase) (O43148 whole entry): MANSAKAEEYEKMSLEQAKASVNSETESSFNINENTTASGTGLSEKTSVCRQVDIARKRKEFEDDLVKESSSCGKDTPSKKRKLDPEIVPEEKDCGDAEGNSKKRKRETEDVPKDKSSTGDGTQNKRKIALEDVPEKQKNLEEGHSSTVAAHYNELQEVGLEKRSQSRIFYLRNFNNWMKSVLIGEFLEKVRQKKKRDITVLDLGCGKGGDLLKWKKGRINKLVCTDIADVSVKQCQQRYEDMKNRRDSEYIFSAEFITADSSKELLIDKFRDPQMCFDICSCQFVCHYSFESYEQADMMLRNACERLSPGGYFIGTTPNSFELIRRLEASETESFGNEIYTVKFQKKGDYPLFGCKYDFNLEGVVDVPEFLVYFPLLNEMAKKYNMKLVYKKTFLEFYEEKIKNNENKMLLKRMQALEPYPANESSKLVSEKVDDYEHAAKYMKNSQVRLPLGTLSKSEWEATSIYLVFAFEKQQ

With `Nc1ncnc2c1ncn2[C@@H]1O[C@H](CSCc2ccc(Cl)cc2)[C@@H](O)[C@H]1O` [NSC620333] the IC50 ([1]; RNMT) was 8.6 ± 1.3 µM, the “Hill Slope” value ([1]; RNMT IC50 curve) was -1.5 and the activity at 10 µM [2, 7] was 91 ± 6%. For the same compound, the activity at 10 µM [2, 8] was 97%, the activity at 10 µM [2, 9] was 94% and the activity at 10 µM [2, 10] was 84%. It also gave an IC50 ([3]; PRMT7) of 7 ± 1.5 µM, an activity at 10 µM ([3]; PRMT7, average ± SD, read-out: Activity (%) at 10 µM Average) of 32 ± 3% and an activity at 10 µM ([3]; PRMT7, read-out: Activity (%) at 10 µM Replicate 1) of 35%. For the same compound, the activity at 10 µM ([3]; PRMT7, read-out: Activity (%) at 10 µM Replicate 2) was 29%, the activity at 10 µM ([3]; PRMT7, read-out: Activity (%) at 10 µM Replicate 3) was 32% and the “Hill Slope” value ([3]; PRMT7 IC50 curve) was -1.9. For the same compound, the activity at 10 µM [4, 7] was 87 ± 1%, the activity at 10 µM [4, 8] was 85% and the activity at 10 µM [4, 9] was 88%. For the same compound, the activity at 10 µM [4, 10] was 87%, the activity at 10 µM [5, 7] was 100 ± 9% and the activity at 10 µM [5, 8] was 101%. The activity at 10 µM [5, 9] was 108%, the activity at 10 µM [5, 10] was 91% and the activity at 10 µM [6, 7] was 96 ± 5%. For the same compound, the activity at 10 µM [6, 8] was 101%, the activity at 10 µM [6, 9] was 90% and the activity at 10 µM [6, 10] was 98%.
